# Test results as given in ChEMBL document CHEMBL5625206, “Design, synthesis, and evaluation of novel pleuromutilin aryl acrylate derivatives as promising broad-spectrum antibiotics especially for combatting multi-drug resistant gram-negative bacteria” (Eur J Med Chem, 2023).
# Experiments:
# Staphylococcus aureus [1] = assay: Antibacterial activity against Staphylococcus aureus ATCC 25923 assessed as bacterial growth inhibition incubated for 24 hrs by CLSI based broth microdilution method; format: functional
# Staphylococcus aureus [2] = assay: Antibacterial activity against Staphylococcus aureus ATCC 29213 assessed as bacterial growth inhibition incubated for 24 hrs by CLSI based broth microdilution method; format: functional
# Staphylococcus aureus [3] = assay: Antibacterial activity against methicillin-resistant Staphylococcus aureus ATCC 33591 assessed as bacterial growth inhibition incubated for 24 hrs by CLSI based broth microdilution method; format: functional
# [4] = tested on: Staphylococcus epidermidis; assay: Antibacterial activity against Staphylococcus epidermidis ATCC 12228 assessed as bacterial growth inhibition incubated for 24 hrs by CLSI based broth microdilution method; format: functional
# Acinetobacter baumannii [5] = assay: Antibacterial activity against Acinetobacter baumannii ATCC 19606 assessed as bacterial growth inhibition incubated for 24 hrs by CLSI based broth microdilution method; format: functional
# Escherichia coli = assay: Antibacterial activity against Escherichia coli ATCC 25922 assessed as bacterial growth inhibition incubated for 24 hrs by CLSI based broth microdilution method; format: functional
# [6] = Cytotoxicity against HEK293 cells incubated for 24 hrs by CCK8 assay; format: toxicity, cell-based; conditions: human
# Acinetobacter baumannii [7] = assay: Antibacterial activity against carbapenem-resistant Acinetobacter baumannii 882 clinical isolate assessed as bacterial growth inhibition incubated for 24 hrs by CLSI based broth microdilution method; format: functional
# [8] = Cytotoxicity against human HepG2 cells incubated for 24 hrs by CCK8 assay; format: toxicity, cell-based
# Staphylococcus aureus [9] = assay: Antibacterial activity against methicillin-resistant Staphylococcus aureus 575 clinical isolate assessed as bacterial growth inhibition incubated for 24 hrs by CLSI based broth microdilution method; format: functional
# Enterococcus = assay: Antibacterial activity against vancomycin-resistant Enterococcus 80 clinical isolate assessed as bacterial growth inhibition incubated for 24 hrs by CLSI based broth microdilution method; format: functional
# [10] = Cytotoxicity against human A549 cells incubated for 24 hrs by CCK8 assay; format: toxicity, cell-based
# Pseudomonas aeruginosa = assay: Antibacterial activity against multidrug-resistant Pseudomonas aeruginosa 126 clinical isolate assessed as bacterial growth inhibition incubated for 24 hrs by CLSI based broth microdilution method; format: functional
# Klebsiella pneumoniae = assay: Antibacterial activity against multidrug-resistant Klebsiella pneumoniae 893 clinical isolate assessed as bacterial growth inhibition incubated for 24 hrs by CLSI based broth microdilution method; format: functional
# Staphylococcus aureus [11] = assay: Antibacterial activity against methicillin-resistant Staphylococcus aureus 171 clinical isolate assessed as bacterial growth inhibition incubated for 24 hrs by CLSI based broth microdilution method; format: functional
Compound,MIC (Staphylococcus aureus [1]) [µg/mL],MIC (Staphylococcus aureus [2]) [µg/mL],MIC (Staphylococcus aureus [3]) [µg/mL],MIC [4] [µg/mL],MIC (Acinetobacter baumannii [5]) [µg/mL],MIC (Escherichia coli) [µg/mL],CC50 at 24 h [6] [µM],MIC (Acinetobacter baumannii [7]) [µg/mL],CC50 at 24 h [8] [µM],MIC (Staphylococcus aureus [9]) [µg/mL],MIC (Enterococcus) [µg/mL],CC50 at 24 h [10] [µM],MIC (Pseudomonas aeruginosa) [µg/mL],MIC (Klebsiella pneumoniae) [µg/mL],MIC (Staphylococcus aureus [11]) [µg/mL]
C=C[C@]1(C)C[C@@H](OC(=O)COC(=O)/C=C/c2ccc(F)cc2)[C@]2(C)[C@H](C)CC[C@]3(CCC(=O)[C@H]32)[C@@H](C)[C@@H]1O,16,32,32,32,128,128,–,–,–,–,–,–,–,–,–
C=C[C@]1(C)C[C@@H](OC(=O)COC(=O)/C=C/c2ccc(C#N)cc2)[C@]2(C)[C@H](C)CC[C@]3(CCC(=O)[C@H]32)[C@@H](C)[C@@H]1O,32,64,64,64,> 128,> 128,–,–,–,–,–,–,–,–,–
C=C[C@]1(C)C[C@@H](OC(=O)COC(=O)/C=C/c2cc(Br)ccc2F)[C@]2(C)[C@H](C)CC[C@]3(CCC(=O)[C@H]32)[C@@H](C)[C@@H]1O,16,32,64,64,128,64,–,–,–,–,–,–,–,–,–
C=C[C@]1(C)C[C@@H](OC(=O)COC(=O)/C=C/c2ccc(C(F)(F)F)cc2)[C@]2(C)[C@H](C)CC[C@]3(CCC(=O)[C@H]32)[C@@H](C)[C@@H]1O,16,16,128,8,> 128,64,–,–,–,–,–,–,–,–,–
C=C[C@]1(C)C[C@@H](OC(=O)COC(=O)/C=C/c2cccs2)[C@]2(C)[C@H](C)CC[C@]3(CCC(=O)[C@H]32)[C@@H](C)[C@@H]1O,32,16,64,16,64,32,–,–,–,–,–,–,–,–,–
C=C[C@]1(C)C[C@@H](OC(=O)COC(=O)/C=C/c2cccc(C(F)(F)F)c2)[C@]2(C)[C@H](C)CC[C@]3(CCC(=O)[C@H]32)[C@@H](C)[C@@H]1O,32,64,256,64,128,64,–,–,–,–,–,–,–,–,–
C=C[C@]1(C)C[C@@H](OC(=O)COC(=O)/C=C/c2cccnc2)[C@]2(C)[C@H](C)CC[C@]3(CCC(=O)[C@H]32)[C@@H](C)[C@@H]1O,2,8,16,2,32,16,28.6,> 128,80.6,64,32,63.4,16,64,32
C=C[C@]1(C)C[C@@H](OC(=O)COC(=O)/C=C/c2ccsc2)[C@]2(C)[C@H](C)CC[C@]3(CCC(=O)[C@H]32)[C@@H](C)[C@@H]1O,32,8,64,16,32,32,–,–,–,–,–,–,–,–,–
C=C[C@]1(C)C[C@@H](OC(=O)COC(=O)/C=C/c2ccccc2)[C@]2(C)[C@H](C)CC[C@]3(CCC(=O)[C@H]32)[C@@H](C)[C@@H]1O,4,16,32,16,> 128,128,–,–,–,–,–,–,–,–,–
C=C[C@]1(C)C[C@@H](OC(=O)COC(=O)/C=C/c2ccc(Cn3ccnc3)cc2)[C@]2(C)[C@H](C)CC[C@]3(CCC(=O)[C@H]32)[C@@H](C)[C@@H]1O,8,16,32,16,128,64,–,–,–,–,–,–,–,–,–
C=C[C@]1(C)C[C@@H](OC(=O)COC(=O)/C=C/c2ccc(-c3ccccc3)cc2)[C@]2(C)[C@H](C)CC[C@]3(CCC(=O)[C@H]32)[C@@H](C)[C@@H]1O,64,32,64,32,> 128,> 128,–,–,–,–,–,–,–,–,–
C=C[C@]1(C)C[C@@H](OC(=O)COC(=O)/C(C#N)=C/c2ccccc2)[C@]2(C)[C@H](C)CC[C@]3(CCC(=O)[C@H]32)[C@@H](C)[C@@H]1O,4,8,32,8,4,8,> 200,8,> 200,> 128,8,> 200,64,32,64
